Experimental data from a melting point compilation (Tetko et al.; mined from patent text by program, amines drawn as free bases though some values may be those of a salt).

Row | Structure (SMILES) | melting point [°C]
1 | c1cn(-c2ccc(N3CCNCC3)cc2)cn1 | 177 to 180
2 | CC(=O)Oc1c(CN(C)C)c2c(c3c1OC(C)(C)C3)C(c1ccccc1)=NC(C)(C)C2 | 125 to 126
3 | O=C(O)c1ccc(OCCc2c(CCNS(=O)(=O)Cc3ccccc3Cl)n(C(c3ccccc3)c3ccccc3)c3ccc(Cl)cc23)cc1F | 132 to 135
4 | CN(O)C(=O)CCc1ccc2c(c1)Cc1ccccc1CO2 | 120 to 122
5 | N#Cc1nc(C#N)c(C#N)nc1C#N | 274 to 276
6 | CC(C)(C)NC(=O)[C@@H]1C[C@H](O)CN1C(=O)OCc1ccccc1 | 129 to 130
7 | CCOC(=O)Cc1csc(NC(=O)C(Cc2ccccc2)NC(=O)OC(C)(C)C)n1 (centres undefined) | 119 to 120
8 | Nc1ccc(C(=O)NC2CCN(CCCn3cnc4c(N)ncnc43)CC2)cc1 | 247 to 248
9 | NNC(=O)CCCSc1nccc(NC(N)=NCC(F)(F)F)n1 | 192 to 195
10 | N#Cc1ccc(Cn2cc(C#N)nn2)cc1 | 93.5 to 94
11 | O=C1N[C@H]2[C@H](O)[C@H](O)[C@@H](O)[C@H](CO)[C@@H]2c2cc3c(cc21)OCO3 | > 200
12 | COC(=O)n1nc(-c2cc(Cl)c(C)c(Cl)c2)ccc1=O | 203 to 206
13 | COC(=O)c1ccc(Nc2nc(Nc3ccc(C(=O)OC)cc3)nc(Nc3ccc(C(=O)OCCOc4ccc(C(C)(C)CC(C)(C)C)cc4)cc3)n2)cc1 | 157 to 160
14 | CCNc1c(C(=O)OCC)c(C)nc(Cl)c1[N+](=O)[O-] | 36 to 37
15 | CC=CCSc1cc(C(=O)O)cc(S(N)(=O)=O)c1-c1ccccc1 | 89 to 91
16 | O=C(c1ccccc1)c1ccc(-c2cnn3c(O)ncnc23)cc1 | > 300
17 | ClCc1cnc2ccc(Cl)cc2c1Cl | 102 to 105
18 | CC(C)CSc1ccc(N)c([N+](=O)[O-])c1 | 56.5 to 58.5
19 | C=C(C)C(=O)NCCCNc1nc(Cl)nc(Cl)n1 | 138 to 140
20 | O=C1CCC(c2ccc(Cl)c([N+](=O)[O-])c2)=NN1 | 190 to 193
21 | COc1cccc(C(=O)NC2(C(=O)c3cc(C)cc(C)c3)CC2)c1C | 174 to 176
22 | FC(F)(F)c1ccc(-c2ccc3nncn3n2)cc1 | 160 to 161
23 | CCC(C)NC(=O)n1c(=O)nc(N2CCOCC2)n1C (centres undefined) | 147

Row | Structure (SMILES) | melting point [°C]
24 | CCOC(=O)c1cnc2occ(Br)c2c1 | 107 to 108
25 | CCOC(=O)c1cn2c3c(cc(F)cc3c1=O)C1CCCCC12 (centres undefined) | 97 to 98
26 | COC(=O)c1cc(Br)c(OC)c2c1OCO2 | 165 to 166
27 | C[C@]1(CN2CCN(c3ccc(OC(F)(F)F)cc3)CC2)Cn2cc([N+](=O)[O-])nc2O1 | 129 to 130
28 | CSc1ccc2c(c1)N=CC(SC)C2=O (centres undefined) | 90 to 92
29 | O=C1c2ccccc2C(=O)c2c(Nc3ccc(O)cc3)ccc(Nc3ccc(O)cc3)c21 | 340 to 342
30 | COc1ccc2ccccc2c1-c1c(C)c2c(c(C)c1P(c1ccccc1)c1ccccc1)COC2 | 159
31 | O=C(O)CS(=O)CC(=O)O | 118 to 119
32 | CC1(C)CC(S(C)(=O)=O)=NO1 | 82 to 84
33 | CC(C)(C)C(O)c1cncnc1 (centres undefined) | 94 to 96
34 | N=C(Nc1ccccc1-c1ccccc1)N1CCC(=NO)CC1 | 175 to 176
35 | O=C1NC[C@@H](c2ccccc2)O1 | 86 to 87
36 | CC(=O)NCCn1ccc2c1-c1cc(Cl)ccc1CC2 | 144 to 146
37 | CN(C)c1nc(N)nc2c1ncn2C1C=CC(CO)C1 (centres undefined) | 173 to 174
38 | CN(C)C1(c2ccccc2)CCC(=CC(=O)NCCCc2c[nH]c3ccccc23)CC1 (centres undefined) | 85 to 87
39 | COc1ccc(OC)c(-c2nnc3ccc(Cl)nn23)c1 | 111 to 112
40 | CCCCCCCCCCC1(CCCCCCCCCC)c2cc(Br)ccc2-c2ccc(Br)cc21 | 38.1 to 38.4
41 | Cc1ccc(-c2ccn(C(C)C(=O)N(C)C)n2)cc1 (centres undefined) | 79 to 82
42 | Cc1cc(NC(=O)C(=O)N(C)Cc2ccccc2)cc(C)c1S(=O)(=O)C[N+](=O)[O-] | 99 to 101
43 | BrCCCCCCOc1ccc(C2c3ccc(OCc4ccccc4)cc3OCC2c2ccccc2)cc1 (centres undefined) | 96.2 to 96.7
44 | CC(C)COc1ccccc1-c1ncc(C(N)=O)c(=O)[nH]1 | 230 to 231
45 | CCC(=CC#N)c1ccc2c(c1)C1(CCCCC1)OC(=O)N2 | 173 to 174
46 | CCCCC1(CCCC)CS(=O)(=O)c2ccc(N(C)C)cc2[C@@H](c2ccc(OCCCCC(=O)O)cc2)[C@H]1O | 76 to 79

Row | Structure (SMILES) | melting point [°C]
47 | OC1CSC(Oc2ccccc2-c2ccno2)C(O)C1O (centres undefined) | 200
48 | CCOC(=O)c1c2n(c3cc(N4CCN(CC(C)=O)CC4)c(F)cc3c1=O)CS2 | 170 to 172
49 | CCCCC(O)CN1N=CCCC1c1ccc(F)cc1 (centres undefined) | 75 to 77
50 | C=CC(=O)NCCCCCC(=O)O | 88 to 90
51 | O=c1oc2c(c(O)c1C(c1ccccc1)C1CC1)CCCCC2CCC1OCCO1 (centres undefined) | 68 to 76
52 | O=C(NC1CCCC1)n1cc(F)c(=O)[nH]c1=O | 137
53 | CCOC(=O)c1cc2cc(OCOC)ccc2s1 | 74 to 75
54 | O=C1CCC(CCC(=O)OCc2ccc(Cl)cc2)N1 (centres undefined) | 63 to 64
55 | CNc1nc(N=[N+]=[N-])ncc1C#N | 225 to 230
56 | CC[C@@H](c1ccccc1)N(Cc1ccc(C(=O)OC)cc1OC)S(=O)(=O)c1ccc(Cl)cc1 | 108 to 110
57 | COC(=O)N[C@H](C(=O)NC(Cc1ccccc1)C(O)CNCC(O)[C@@H](Cc1ccc(OCCc2ccccn2)cc1)NC(=O)OC(C)(C)C)C(C)(C)C (relative stereo) | 139 to 141
58 | C[C@H](CC(=O)[C@H](Cc1ccccc1)OC(=O)c1ccccc1)C(=O)N1CCC[C@H]1C(=O)O | 130 to 134
59 | C=CCNC(=O)C=Cc1cn(C)nc1[N+](=O)[O-] | 143 to 146
60 | CN(C)c1ccc(C(=O)C#Cc2cccc(OCc3ccccc3)c2)cc1 | 134 to 136
61 | CN1CC[C@@]2(c3cccc(O)c3)C[C@@H](N=[N+]=[N-])CC[C@H]2C1 (racemic) | 139 to 140
62 | Cc1ccc(OCCCl)c(C(N)=O)c1 | 111 to 113
63 | CCCO[C@@H]1[C@@H](OC)[C@H](C)O[C@@H](ON=Cc2ccc(/C=C/c3ccc(OC(F)(F)F)cc3)cc2)[C@@H]1OC | 124 to 132
64 | CS(=O)(=O)c1ccc(C(=O)c2ccc(Cl)cc2)cc1 | 176
65 | CCOC(=O)C(C#N)=Cc1cc(OC)c(C(=O)OC)c(OC)c1 | 142 to 144
66 | COc1ccc([N+](=O)[O-])c(N2CCCC2)c1 | 46 to 48.5
67 | CCOc1cc(N)c([N+](=O)[O-])cc1NCCO | 157 to 158
68 | FC(F)(F)c1onc(-c2ccc(Cl)o2)c1-c1ccccc1 | 55 to 57
69 | CC(CCC(O)C(C)(C)O)C1CCC2C3CCC4CC(O)CCC4(C)C3CCC12C (centres undefined) | 152 to 154

Second part, the compound after the results:

Row | melting point [°C] | Structure (SMILES)
70 | 179 to 180 | O=C1CC(c2cccc(-n3cnnn3)c2)=Nc2ccc(-c3ccccc3F)cc2N1
71 | 225 | Cc1nn(CC(=O)c2ccc(Cl)cc2)c(=O)n1-c1ccc(N2CCN(c3ncc(O)cn3)CC2)cc1
72 | 161 to 162 | COC(=O)C1C=CCN2C(=O)C(CCSC(C)=O)(Cc3ccccc3)C(=O)N12 (centres undefined)
73 | > 250 | CC(C)n1nc(-c2cc(C#N)c(=O)[nH]c2-c2ccccc2)ccc1=O
74 | 85 | Oc1ccc(F)c(-c2c(-c3ccccc3)cnc3c(C(F)(F)F)cccc23)c1
75 | 80 to 81 | O=C(CCc1conc1-c1ccc(Cl)cc1)NCc1cccc(C(F)(F)F)c1
76 | 147 | Fc1cccc(Cl)c1-c1c(Cl)cc(-c2ncccn2)nc1Cl
77 | 112 to 113 | CCCN1C(=O)N2C[C@@H](Cc3ccccc3)N=C2c2c1nc(CCl)n2Cc1ccccc1
78 | 237 to 239 | Cc1cc(CNc2cccc3c2CN(C2CCC(=O)NC2=O)C3=O)oc1C (centres undefined)
79 | 89 to 90 | Cc1oc(-c2ccco2)nc1COc1ccc(CCCn2ccnc2)cc1
80 | 116 to 120 | CC(C)Oc1cc(CCCOc2cc(CCC(=O)O)n(C)n2)cc(COc2ccc(Cl)cc2Cl)c1
81 | 140 | COc1cc(CCCN2CCc3cc(OC)c(OC)cc3C2)ccc1NC(=O)c1cccc2c(=O)c3c(OC)ccc(OC)c3[nH]c12
82 | 76.2 to 81.2 | CCCCc1nc(C)c(CCC(=S)N(C)C)c(=O)n1Cc1ccc(-c2ccccc2-c2nnn[nH]2)cc1
83 | 194 to 195 | CC1(C)OC(=S)Nc2ccc(-c3cccc(F)c3)cc21
84 | 136 to 137 | CCCCS(=O)(=O)Nc1cccc(COc2cccc3cccnc23)c1
85 | 114 | COCCOc1ccc2ccc(NC(=O)c3ccc(OC)cc3)nc2n1
86 | 200 to 202 | Cn1c2c(c3cc(F)ccc31)C(=O)NCC2
87 | 133 to 134 | COc1ccc2cc(C3CCN(C[C@H](O)COc4cccc5oc(C6=NC(C)(C)CO6)cc45)CC3)ccc2c1
88 | 228 | Cc1ccc(S(=O)(=O)Cc2c(C(=O)O)nn(-c3ccccc3)c2O)cc1
89 | 146 to 148 | O=c1c2ccccc2n(Cc2ccccc2)n2cccc12
90 | 176 to 178 | Cc1ccc(-c2nc(C(F)(F)F)nn2-c2ccc(S(C)(=O)=O)cc2)cc1
91 | 143 | O=C1c2ccccc2C(=O)N1c1cc(C(Cl)(Cl)Cl)ccn1
92 | 237 to 238 | Cc1ccccc1-c1c(NC(=O)Nc2c(C)cccc2C(C)C)c(=O)oc2ccc(Cl)cc12
93 | 79 to 80 | CCn1cnc2c(Nc3cccc(Cl)c3)nc(NCCN)nc21
94 | 131 to 132 | COc1cccc(CC(=O)O)c1OCCCc1cn(-c2ncc(C(F)(F)F)cn2)nc1C(C)C
95 | 250 | Oc1ccc2c(-c3ccco3)nn(Cc3ccccc3F)c2n1
96 | 108 to 109 | CC1(C)OC[C@@H](CNc2ccc3cc(OCC4CC4)ccc3c2)O1
97 | 261 to 263 | CCCOc1ccc(S(=O)(=O)Nc2ccc3[nH]ncc3c2)cc1-c1nc2cc(Cl)c([N+](=O)[O-])cc2c(=O)[nH]1
98 | 171 to 172 | Cc1cc(C=O)cc(Oc2nc(OCc3ccccc3)nc(OCc3ccccc3)c2C(C)C)c1
99 | 277 to 281 | CCCn1cc2c(C3C(=O)Nc4ccc(Br)cc43)nc(NCc3cccnc3)nc2n1 (centres undefined)
